From publication PMC11195807, “Development of a multi-targeted chemotherapeutic approach based on G-quadruplex stabilisation and carbonic anhydrase inhibition” (Journal of Enzyme Inhibition and Medicinal Chemistry, 2024) come the findings set out here.

As a reminder, the melting point is the temperature of the solid-liquid transition.

Structures can show the parent of a compound that is named as a salt.

In one data set the test system is GQ structures. The experiment in a line: BG4 immunofluorescence of GQ foci, HeLa cells in normoxia. The format is cell-based. As to conditions: 24 h, 35.0 µM S-4,0, 40.0 µM C-4,2, 37.5 µM C-5,2, 2 µM RHPS4, over DMSO. The text has this: After measuring the viability of HeLa cells upon treatment with the newly synthesised MTDLs mentioned above, we probed the capability of the three most cytotoxic ones (S-4,0, C-4,2, and C-5,2) to affect the formation of GQ structures by immunofluorescence (IF) microscopy, using the BG4 antibody that selectively recognises the GQ structures. As it can be noticed in Figure 6, the fluorescence intensity of the total number of GQ foci increased by around 30% after treatment with both the coumarin derivative C-4,2 and the reference GQ binder RHPS4, whereas it was not affected by S-4,0 and C-5,2. […] On the contrary, the levels of GQ structures were influenced neither by the treatment with the sulphonamide S-4,0 nor by the coumarin C-5,2, despite their ability to thermally stabilise some GQ-forming sequences in vitro.
Figure 6. (A) Representative fields showing G4 foci formation detected by immunofluorescence in HeLa cells treated for 24 h with 35.0 µM S-4,0, 40.0 µM C-4,2, and 37.5 µM C-5,2 or an equivalent amount of vehicle (0.1% DMSO). As a positive control, cells were treated with 2 µM RHPS4 (a well-established GQ ligand)[68] for 24 h. Scale bar: 10 µm. Upper panels: the merged channels of BG4-stained GQ structures (magenta) and Hoechst-counterstained nuclei (grey) are reported. Lower panels: enlargements from the pictures in the upper panels. (B) Quantitative analysis of the fluorescence intensity of the total number of GQ foci. An average of 50 cells were screened for each condition and the results are expressed as a fold change of fluorescence intensity (anti-GQ signal) over the negative control (DMSO). Histograms show the mean ± SD of three independent experiments. The statistical significance was calculated using a one-way ANOVA test on GraphPad Prism 8.0.2 (ns: not significant, **: p < 0.01).
For the IF experiments in the presence of normal oxygen levels, HeLa cells were seeded on sterile coverslips, in a 24-well plate, at a density of 90,000 cells per well, and incubated overnight. Then, cells were treated with a sublethal concentration of each investigated MTDL or an equivalent amount of vehicle (0.1% DMSO), for 24 h. As positive control, cells were exposed for 24 h to 2 µM RHPS4. As regards the IF experiments under hypoxic conditions, HeLa were seeded on sterile coverslips, in a 24-well plate, at a density of 50,000 cells per well, and incubated overnight. […] From there, the cellular and nuclear foci were segmented, and their number or fluorescence intensity was quantified by using the Image Analysis package of ZEISS ZEN 3.1 software.

Regarding `COc1ccc2cc3[n+](cc2c1OCc1cn(CCCCOc2ccc4ccc(=O)oc4c2)nn1)CCc1cc2c(cc1-3)OCO2` (as salt: phosphate) [Compound 43, 10-Methoxy-9-((1–(4-((2-oxo-2H-chromen-7-yl)oxy)butyl)-1H-1,2,3-triazol-4-yl)methoxy)-5,6-dihydro-[1,3]dioxolo[4,5-g]isoquinolino[3,2-a]isoquinolin-7-ium hexafluorophosphate], the melting point is 124 to 125 °C.
On the same count and under the same terms, then `COc1ccc2cc3[n+](cc2c1OCc1cn(CCCCCOc2ccc4ccc(=O)oc4c2)nn1)CCc1cc2c(cc1-3)OCO2` (as salt: phosphate) [Compound 44, 10-Methoxy-9-((1–(5-((2-oxo-2H-chromen-7-yl)oxy)pentyl)-1H-1,2,3-triazol-4-yl)methoxy)-5,6-dihydro-[1,3]dioxolo[4,5-g]isoquinolino[3,2-a]isoquinolin-7-ium hexafluorophosphate], with 171 to 173 °C.
Still for that read-out and setting: then `COc1ccc2cc3[n+](cc2c1OCc1cn(-c2ccc4c(C)cc(=O)oc4c2)nn1)CCc1cc2c(cc1-3)OCO2` (as salt: phosphate) [Compound 45, 10-Methoxy-9-((1–(4-methyl-2-oxo-2H-chromen-7-yl)-1H-1,2,3-triazol-4-yl)methoxy)-5,6-dihydro-[1,3]dioxolo[4,5-g]isoquinolino[3,2-a]isoquinolin-7-ium hexafluorophosphate], with 280 to 282 °C.
Consider `COS(=O)(=O)[O-].Cc1cc2c3c([n+](C)c4ccc(F)cc4c3c1)-c1cc(F)ccc1N2C` [RHPS4, reference compound], for which the “increase of fluorescence intensity of the total number of GQ foci” value with GQ structures is given as “around 30%”.
